Where two headings read alike, the source gives them in different places.
How the values were obtained:
[1] = target: T1, NAMPT (Homo sapiens, UniProt P43490); assay: Biochemical inhibition assay: NAMPT enzymatic reaction, NMN quantified by mass spectrometry; conditions: read-out: Biochem IC50
T1 construct: His tag; host or cells: E. coli
How it was run: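 Inhibition of E. coli-expressed His-tagged human NAMPT, measured as NMN formation by mass spectrometry after a 30 min room-temperature reaction containing 1 μM NAM, 100 μM PRPP and 2.5 mM ATP.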

[2] = tested on: A2780 cells; assay: In-vitro cell proliferation assay (SRB), A2780 cells; assay type: cell-based; conditions: Homo sapiens, A2780, 72 h, A2780 cells, 72 hours, read-out: A2780 IC50
How it was run: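 Proliferation is assessed by sulforhodamine B staining following a 72-hour incubation with compound dilutions containing 0.1% DMSO.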

T1 sequence (P43490 whole entry): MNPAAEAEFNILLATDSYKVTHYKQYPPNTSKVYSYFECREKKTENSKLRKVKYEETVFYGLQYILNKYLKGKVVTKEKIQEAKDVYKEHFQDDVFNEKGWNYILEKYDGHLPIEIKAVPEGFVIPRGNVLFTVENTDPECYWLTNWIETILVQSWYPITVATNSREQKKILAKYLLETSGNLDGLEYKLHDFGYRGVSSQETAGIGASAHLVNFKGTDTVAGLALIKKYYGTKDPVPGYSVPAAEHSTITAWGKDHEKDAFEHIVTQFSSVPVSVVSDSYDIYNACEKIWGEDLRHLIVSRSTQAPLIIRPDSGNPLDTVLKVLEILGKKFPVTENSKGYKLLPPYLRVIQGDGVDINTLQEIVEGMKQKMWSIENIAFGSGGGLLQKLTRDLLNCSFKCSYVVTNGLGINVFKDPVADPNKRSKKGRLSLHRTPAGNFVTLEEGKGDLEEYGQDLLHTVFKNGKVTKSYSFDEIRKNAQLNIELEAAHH

SMILES | IC50 ([1]; NAMPT enzymatic assay) [nM] | IC50 ([2]; SRB) [nM] | IC50 ([1]; NAMPT enzymatic reaction) [nM] | IC50 ([2]; SRB assay) [nM]
O=C(NCc1ccc(S(=O)(=O)c2ccc(C(F)(F)F)c(F)c2)cc1)c1cc2ccncc2s1 | 8.8 | 7.2 | – | –
C#CCOc1ccc(Cl)cc1S(=O)(=O)c1ccc(CNC(=O)c2ccc3nccn3c2)cc1 | 7 | 1.4 | – | –
O=C(NCc1ccc(S(=O)(=O)c2cccc(C(F)(F)F)n2)cc1)c1ccc2nccn2c1 [N-({4-[6-(trifluoromethyl)pyridine-2-sulfonyl]phenyl}methyl)imidazo[1,2-a]pyridine-6-carboxamide] | 8.7 | 1.5 | – | –
Cc1ccc(S(=O)(=O)c2ccc(CNC(=O)c3cnc4[nH]ncc4c3)cc2)cc1F | – | 5.6 | 11.7 | –
COc1cc(C)cc(S(=O)(=O)c2ccc(CNC(=O)c3cc4ccncc4s3)cc2)c1 | – | 0.8 | 2.4 | –
O=C(NCc1ccc(S(=O)(=O)c2ccccc2)cc1)c1cnc2[nH]ccc2c1 [N-{[4-(benzenesulfonyl)phenyl]methyl}-1H-pyrrolo[2,3-b]pyridine-5-carboxamide] | – | – | 1910 | > 30000
O=C(NCc1ccc(S(=O)(=O)c2ccc(C(F)(F)F)c(F)c2)cc1)c1cc2cnccc2[nH]1 [N-[(4-{[3-fluoro-4-(trifluoromethyl)benzene]sulfonyl}phenyl)methyl]-1H-pyrrolo[3,2-c]pyridine-2-carboxamide] | 10.3 | 13 | – | –
COc1cc(Cl)ccc1S(=O)(=O)c1ccc(CNC(=O)c2cc3ccncc3s2)cc1 [N-({4-[(4-chloro-2-methoxybenzene)sulfonyl]phenyl}methyl)thieno[2,3-c]pyridine-2-carboxamide] | – | – | 10 | 3.8
COc1cc(S(=O)(=O)c2ccc(CNC(=O)c3ccc4nccn4c3)cc2)ccc1Cl | – | 6 | 13.5 | –
Cc1ccc(C)c(S(=O)(=O)c2ccc(CNC(=O)c3cc4ccncc4o3)cc2)c1 | – | 23.9 | 18.1 | –
O=C(NCc1ccc(S(=O)(=O)c2cncc(F)c2)cc1)c1ccc2nccn2c1 [N-{[4-(5-fluoropyridine-3-sulfonyl)phenyl]methyl}imidazo[1,2-a]pyridine-6-carboxamide] | 27.8 | 13.7 | – | –
O=C(NCc1ccc(S(=O)(=O)Nc2cccc3cccnc23)cc1)c1cc2cnccc2[nH]1 [N-({4-[(quinolin-8-yl)sulfamoyl]phenyl}methyl)-1H-pyrrolo[3,2-c]pyridine-2-carboxamide] | – | – | 75 | 1480
CCN(CC)C(=O)c1cc(Cl)cc(S(=O)(=O)c2ccc(CNC(=O)c3cc4ccncc4s3)cc2)c1 | 2.3 | 0.8 | – | –
CN(C)c1ccc(S(=O)(=O)c2ccc(CNC(=O)c3cnc4nccn4c3)cc2)cn1 [N-({4-[6-(dimethylamino)pyridine-3-sulfonyl]phenyl}methyl)imidazo[1,2-a]pyrimidine-6-carboxamide] | 2.7 | 5.9 | – | –
COc1cc(OC)cc(S(=O)(=O)c2ccc(CNC(=O)c3cc4ccncc4o3)cc2)c1 | – | 1.7 | 2.7 | –
O=C(NCc1ccc(S(=O)(=O)c2cccc(-n3cccn3)c2)cc1)c1ccc2nccn2c1 | 4.8 | 6.2 | – | –
COc1ccc(S(=O)(=O)c2ccc(CNC(=O)c3cnc4[nH]ncc4c3)cc2)c(F)c1 | – | 207 | 120 | –
O=C(NCc1ccc(S(=O)(=O)c2cc(Cl)ccc2OCC(F)(F)F)cc1)c1ccc2nccn2c1 | 1 | 0.3 | – | –

SMILES | IC50 ([1]; NAMPT enzymatic assay) [nM] | IC50 ([2]; SRB) [nM] | IC50 ([1]; NAMPT enzymatic reaction) [nM] | IC50 ([2]; SRB assay) [nM]
CCCOc1cccc(F)c1S(=O)(=O)c1ccc(CNC(=O)c2cc3ccncc3s2)cc1 | – | 29.3 | 11.5 | –
CC(C)COc1ccc(S(=O)(=O)c2ccc(CNC(=O)c3cc4ccncc4o3)cc2)cc1 | 9.4 | 11.6 | – | –
COc1ccc(C(C)C)cc1S(=O)(=O)c1ccc(CNC(=O)c2cc3ccncc3s2)cc1 [N-[(4-{[2-methoxy-5-(propan-2-yl)benzene]sulfonyl}phenyl)methyl]thieno[2,3-c]pyridine-2-carboxamide] | – | – | 9 | 6.2
COc1ccc(OC)c(S(=O)(=O)c2ccc(CNC(=O)c3cc4cnccc4[nH]3)cc2)c1 [N-({4-[(2,5-dimethoxybenzene)sulfonyl]phenyl}methyl)-1H-pyrrolo[3,2-c]pyridine-2-carboxamide] | 17 | 6 | – | –
O=C(NCc1ccc(S(=O)(=O)c2cccc3c2sc2ccccc23)cc1)c1cc2ccncc2o1 | 8.7 | 12 | – | –
O=C(NCc1ccc(S(=O)(=O)c2ccccc2CN2CCOCC2)cc1)c1cnc2nccn2c1 | 14.5 | 100 to 1000 | – | –
O=C(NCc1ccc(CCS(=O)(=O)c2ccccc2)cc1)c1cc2cnccc2[nH]1 [N-({4-[2-(benzenesulfonyl)ethyl]phenyl}methyl)-1H-pyrrolo[3,2-c]pyridine-2-carboxamide] | 23 | 166 | – | –
Cc1ccc(F)cc1S(=O)(=O)c1ccc(CNC(=O)c2cc3cnccc3[nH]2)cc1 [N-({4-[(5-fluoro-2-methylbenzene)sulfonyl]phenyl}methyl)-1H-pyrrolo[3,2-c]pyridine-2-carboxamide] | – | – | 11 | 7
COc1ccc(F)c(S(=O)(=O)c2ccc(CNC(=O)c3cnc4[nH]ncc4c3)cc2)c1 [N-({4-[(2-fluoro-5-methoxybenzene)sulfonyl]phenyl}methyl)-1H-pyrazolo[3,4-b]pyridine-5-carboxamide] | – | 100 to 1000 | 139 | –
O=C(NCc1ccc(S(=O)(=O)c2cccc(C(F)(F)F)c2)cc1)c1cc2ccncc2s1 [N-[(4-{[3-(trifluoromethyl)benzene]sulfonyl}phenyl)methyl]thieno[2,3-c]pyridine-2-carboxamide] | – | – | 3 | 1
O=C(NCc1ccc(S(=O)(=O)c2ccccc2)cc1)N1CCc2ncncc2C1 [N-{[4-(benzenesulfonyl)phenyl]methyl}-5H,6H,7H,8H-pyrido[4,3-d]pyrimidine-6-carboxamide] | – | – | > 2000 | > 2000
CC(C)c1cccc(S(=O)(=O)c2ccc(CNC(=O)c3cc4ccncc4s3)cc2)c1 [N-[(4-{[3-(propan-2-yl)benzene]sulfonyl}phenyl)methyl]thieno[2,3-c]pyridine-2-carboxamide] | – | – | 9 | 2.6
CC(C)CNC(=O)c1cccc(S(=O)(=O)c2ccc(CNC(=O)c3cc4ccncc4o3)cc2)c1 | 16.9 | 26.3 | – | –
Cc1ccc(S(=O)(=O)c2ccc(CNC(=O)c3cc4ccncc4s3)cc2)cc1Cl | – | 1 | 5.1 | –
Cc1c(F)cccc1S(=O)(=O)c1ccc(CNC(=O)c2cnc3[nH]ncc3c2)cc1 [N-({4-[(3-fluoro-2-methylbenzene)sulfonyl]phenyl}methyl)-1H-pyrazolo[3,4-b]pyridine-5-carboxamide] | – | 71.8 | 46.9 | –
Cc1ccc(S(=O)(=O)c2ccc(CNC(=O)c3cnc4nccn4c3)cc2)cc1 | – | 19.4 | 4.3 | –
O=C(NCc1ccc(S(=O)(=O)c2cccc3c2sc2ccccc23)cc1)c1cnc2nccn2c1 | 1.8 | 2 | – | –
Cc1cc(C(F)(F)F)ccc1S(=O)(=O)c1ccc(CNC(=O)c2cnc3[nH]ncc3c2)cc1 [N-[(4-{[2-methyl-4-(trifluoromethyl)benzene]sulfonyl}phenyl)methyl]-1H-pyrazolo[3,4-b]pyridine-5-carboxamide] | 100 to 1000 | 74.6 | – | –

From US12336981B2, “Compounds and compositions for the inhibition of NAMPT” (Valo Health, Inc., priority 2010, dated 2025)
